The results in this text go back to publication PMC2014795 (PLoS Pathogens, 2007).

Where no end group is shown, it is not given here.

The first assay has as its target T1, HLA-DR1 (DRB1*0101) (Homo sapiens, UniProt P01903+P01911, A100R/D57E/F55L/F60I/F76Y/I96L/L162R/M171V/P40L/Q125E/R42F/V115G/Y59C).
T1 construct: the extracellular portion of HLA-DR1 was produced by expression of isolated subunits in Escherichia coli inclusion bodies; made in house
As to the kind of experiment: biochemical. Format: binding.
Details: not given
`CC[C@H](C)[C@H](NC(=O)[C@H](CO)NC(=O)[C@H](CCSC)NC(=O)[C@H](CO)NC(=O)[C@H](Cc1ccc(O)cc1)NC(=O)[C@@H](NC(=O)[C@@H](NC(=O)[C@H](CO)NC(=O)[C@@H]1CCCN1C(=O)[C@H](Cc1ccccc1)NC(=O)[C@H](CC(C)C)NC(=O)[C@H](CC(C)C)NC(=O)[C@@H](NC(=O)[C@@H](NC(=O)[C@@H](NC(=O)[C@H](CC(C)C)NC(=O)[C@H](CO)NC(=O)[C@H](CCCNC(=N)N)NC(=O)[C@@H](N)CCSC)[C@@H](C)CC)[C@@H](C)CC)C(C)C)[C@@H](C)CC)[C@@H](C)CC)C(=O)N[C@@H](CCCNC(=N)N)C(=O)N[C@@H](CCCNC(=N)N)C(=O)O` [Peptide 319] displayed an IC50 of 1890 nM. Consider `CC[C@H](C)[C@H](N)C(=O)N[C@H](C(=O)N[C@H](C(=O)N[C@@H](Cc1c[nH]c2ccccc12)C(=O)N1CCC[C@H]1C(=O)N[C@@H](CCCCN)C(=O)N[C@@H](Cc1ccccc1)C(=O)N[C@@H](CCCNC(=N)N)C(=O)N[C@H](C(=O)N[C@H](C(=O)N[C@@H](CCCCN)C(=O)N1CCC[C@H]1C(=O)N[C@@H](CC(N)=O)C(=O)N[C@@H](CO)C(=O)N[C@@H](Cc1ccccc1)C(=O)N[C@H](C(=O)N[C@@H](Cc1ccccc1)C(=O)N[C@@H](CO)C(=O)N[C@@H](Cc1ccccc1)C(=O)N[C@@H](CO)C(=O)N[C@@H](CO)C(=O)O)[C@@H](C)O)C(C)C)C(C)C)[C@@H](C)O)[C@@H](C)O` [Peptide 344], for which inhibition was half-maximal at 33 ± 5 nM (IC50). Same read-out and setting: the value for TTKHPDYAILAARIAVSNLHK [Peptide 307] was 28 ± 4 nM; that for `CC[C@H](C)[C@H](NC(=O)[C@@H](NC(=O)[C@H](CC(N)=O)NC(=O)[C@H](CCCNC(=N)N)NC(=O)[C@H](Cc1c[nH]cn1)NC(=O)[C@H](CCCNC(=N)N)NC(=O)[C@@H](NC(=O)[C@H](Cc1ccc(O)cc1)NC(=O)[C@H](CCC(=O)O)NC(=O)[C@H](C)NC(=O)[C@H](CC(C)C)NC(=O)[C@@H](NC(=O)[C@H](CC(C)C)NC(=O)[C@H](CCCCN)NC(=O)[C@H](Cc1ccccc1)NC(=O)[C@H](CO)NC(=O)[C@H](Cc1ccc(O)cc1)NC(=O)[C@H](CCCCN)NC(=O)[C@H](CC(N)=O)NC(=O)[C@H](Cc1ccc(O)cc1)NC(=O)[C@@H](N)CC(C)C)[C@@H](C)CC)[C@@H](C)CC)[C@@H](C)O)C(=O)O` [Peptide 321] was 185 ± 50 nM; that for `CC[C@H](C)[C@H](NC(=O)[C@H](CCCNC(=N)N)NC(=O)[C@H](CC(=O)O)NC(=O)[C@@H](NC(=O)[C@H](CCCCN)NC(=O)[C@@H](NC(=O)[C@H](CO)NC(=O)[C@H](CCC(=O)O)NC(=O)[C@@H](NC(=O)[C@H](Cc1ccc(O)cc1)NC(=O)[C@H](CCSC)NC(=O)[C@H](Cc1ccccc1)NC(=O)[C@H](CO)NC(=O)[C@H](Cc1ccccc1)NC(=O)[C@H](CCCCN)NC(=O)[C@H](Cc1ccccc1)NC(=O)[C@H](Cc1ccccc1)NC(=O)[C@@H](N)CC(=O)O)[C@@H](C)CC)[C@@H](C)CC)C(C)C)C(=O)NCC(=O)N[C@@H](CC(=O)O)C(=O)N[C@@H](CC(N)=O)C(=O)O` [Peptide 328] was 140 ± 20 nM. Compound `CC[C@H](C)[C@H](NC(=O)[C@H](CCC(=O)O)NC(=O)[C@H](CC(=O)O)NC(=O)[C@@H](NC(=O)[C@H](CC(=O)O)NC(=O)[C@H](CC(C)C)NC(=O)[C@@H](NC(=O)[C@H](CCCCN)NC(=O)CNC(=O)[C@H](Cc1c[nH]cn1)NC(=O)[C@@H](NC(=O)[C@@H](NC(=O)[C@H](Cc1ccc(O)cc1)NC(=O)[C@H](CCSC)NC(=O)[C@H](CC(=O)O)NC(=O)[C@H](Cc1ccc(O)cc1)NC(=O)[C@@H]1CCCN1C(=O)[C@H](CC(C)C)NC(=O)[C@H](CCCNC(=N)N)NC(=O)[C@@H](N)CCCCN)[C@@H](C)CC)[C@@H](C)CC)C(C)C)[C@@H](C)CC)C(=O)N[C@@H](CC(C)C)C(=O)O` [Peptide 339] showed an IC50 of 210 ± 45 nM. The compound `CC[C@H](C)[C@H](NC(=O)[C@H](Cc1ccccc1)NC(=O)[C@H](CC(C)C)NC(=O)[C@H](CC(C)C)NC(=O)[C@H](CS)NC(=O)[C@@H](NC(=O)[C@H](C)NC(=O)[C@H](C)NC(=O)[C@@H](NC(=O)[C@H](C)NC(=O)[C@@H](NC(=O)[C@@H](NC(=O)[C@@H](NC(=O)[C@H](Cc1ccccc1)NC(=O)[C@H](Cc1ccccc1)NC(=O)[C@@H](NC(=O)[C@H](CO)NC(=O)[C@H](CC(C)C)NC(=O)[C@H](CO)NC(=O)[C@H](CC(N)=O)NC(=O)[C@@H](N)CCSC)[C@@H](C)CC)[C@@H](C)CC)C(C)C)C(C)C)[C@@H](C)O)C(C)C)C(=O)O` [Peptide 325] yielded an IC50 of 580 ± 50 nM. As to `CC[C@H](C)[C@H](N)C(=O)N[C@@H](CC(=O)O)C(=O)N[C@@H](CC(N)=O)C(=O)N[C@@H](CCC(=O)O)C(=O)N[C@@H](CO)C(=O)NCC(=O)N[C@@H](Cc1c[nH]c2ccccc12)C(=O)N[C@@H](CCCCN)C(=O)N[C@H](C(=O)N[C@@H](CC(C)C)C(=O)N[C@H](C(=O)N[C@@H](CO)C(=O)N[C@@H](CCCNC(=N)N)C(=O)N[C@@H](C)C(=O)N[C@H](C(=O)N[C@@H](CC(=O)O)C(=O)N[C@@H](CC(C)C)C(=O)N[C@@H](CO)C(=O)N[C@@H](CO)C(=O)N[C@@H](CCCCN)C(=O)N[C@@H](CCCCN)C(=O)O)[C@@H](C)CC)C(C)C)[C@@H](C)O` [Peptide 342], the midpoint of inhibition, the IC50, lay at 130 ± 10 nM. The compound `CC[C@H](C)[C@H](NC(=O)CNC(=O)[C@H](CO)NC(=O)[C@H](CCC(N)=O)NC(=O)[C@H](CC(N)=O)NC(=O)[C@@H](NC(=O)[C@H](Cc1ccccc1)NC(=O)[C@@H]1CCCN1C(=O)[C@H](CCC(=O)O)NC(=O)[C@H](Cc1ccccc1)NC(=O)[C@@H](NC(=O)[C@H](CC(C)C)NC(=O)[C@@H](N)CS)C(C)C)C(C)C)C(=O)N[C@@H](CCC(=O)O)C(=O)N[C@H](C(=O)N[C@@H](CC(C)C)C(=O)N[C@@H](CC(C)C)C(=O)N[C@@H](CC(C)C)C(=O)N[C@@H](Cc1ccc(O)cc1)C(=O)N[C@@H](Cc1ccccc1)C(=O)N[C@@H](CCCCN)C(=O)O)[C@@H](C)CC` [Peptide 311] gave an IC50 of 3400 nM. Regarding `CC[C@H](C)[C@H](NC(=O)[C@H](C)NC(=O)[C@H](CCCNC(=N)N)NC(=O)CNC(=O)[C@@H](NC(=O)[C@@H](NC(=O)[C@H](CCC(N)=O)NC(=O)[C@H](CCCNC(=N)N)NC(=O)[C@H](CC(C)C)NC(=O)[C@H](CO)NC(=O)[C@H](C)NC(=O)[C@H](CCC(=O)O)NC(=O)[C@H](CC(N)=O)NC(=O)[C@H](Cc1c[nH]c2ccccc12)NC(=O)[C@@H](N)[C@@H](C)O)[C@@H](C)CC)C(C)C)C(=O)N[C@@H](CCCNC(=N)N)C(=O)N[C@@H](CC(C)C)C(=O)N[C@@H](CC(N)=O)C(=O)N[C@@H](CO)C(=O)N[C@@H](Cc1c[nH]cn1)C(=O)N[C@H](C(=O)O)C(C)C` [Peptide 343], the IC50 amounted to 210 ± 20 nM. In the case of `CC[C@H](C)[C@H](NC(=O)[C@H](CCCNC(=N)N)NC(=O)[C@H](Cc1ccccc1)NC(=O)[C@H](CC(C)C)NC(=O)[C@H](Cc1ccc(O)cc1)NC(=O)[C@H](CCC(=O)O)NC(=O)[C@H](CO)NC(=O)[C@H](CC(=O)O)NC(=O)[C@@H](N)CCC(=O)O)C(=O)N[C@H](C(=O)N[C@@H](CO)C(=O)N[C@H](C(=O)N[C@H](C(=O)N[C@@H](CC(C)C)C(=O)N1CCC[C@H]1C(=O)N[C@@H](Cc1c[nH]cn1)C(=O)N[C@@H](CC(C)C)C(=O)N[C@@H](CS)C(=O)N[C@@H](CC(C)C)C(=O)N[C@@H](CC(=O)O)C(=O)N[C@@H](Cc1ccc(O)cc1)C(=O)O)C(C)C)[C@@H](C)O)C(C)C` [Peptide 334], the IC50 worked out at 45 ± 8 nM. Same read-out and setting: the value for `CC[C@H](C)[C@H](NC(=O)[C@@H]1CCCN1C(=O)[C@H](CO)NC(=O)CNC(=O)[C@H](CO)NC(=O)[C@H](CC(C)C)NC(=O)[C@H](CC(C)C)NC(=O)[C@H](CC(C)C)NC(=O)[C@H](Cc1ccccc1)NC(=O)[C@@H]1CCCN1C(=O)[C@@H](NC(=O)[C@H](CCCCN)NC(=O)[C@H](CC(N)=O)NC(=O)[C@H](CCCCN)NC(=O)[C@@H](N)CC(N)=O)[C@@H](C)CC)C(=O)N[C@H](C(=O)N[C@@H](CC(N)=O)C(=O)N[C@H](C(=O)N1CCC[C@H]1C(=O)N[C@@H](CC(N)=O)C(=O)N[C@H](C(=O)O)[C@@H](C)O)[C@@H](C)O)[C@@H](C)O` [Peptide 316] was 45 ± 19 nM; that for `CC[C@H](C)[C@H](NC(=O)[C@H](CO)NC(=O)[C@H](C)NC(=O)[C@H](CC(=O)O)NC(=O)[C@H](CC(C)C)NC(=O)[C@H](CC(C)C)NC(=O)[C@H](CO)NC(=O)[C@H](C)NC(=O)[C@@H](NC(=O)[C@H](CO)NC(=O)[C@@H](NC(=O)[C@@H](NC(=O)[C@@H](NC(=O)[C@@H](NC(=O)[C@@H](NC(=O)[C@H](CCCCN)NC(=O)[C@@H](N)CCSC)C(C)C)C(C)C)[C@@H](C)CC)C(C)C)[C@@H](C)O)C(C)C)C(=O)N[C@@H](CCC(N)=O)C(=O)N[C@@H](Cc1ccccc1)C(=O)N[C@@H](CCC(N)=O)C(=O)N[C@@H](CCCCN)C(=O)O` [Peptide 332] was 380 ± 28 nM. For the compound `CC[C@H](C)[C@H](NC(=O)CNC(=O)[C@@H](NC(=O)[C@@H]1CCCN1C(=O)[C@@H](NC(=O)CNC(=O)CNC(=O)CNC(=O)[C@@H](N)CC(C)C)[C@@H](C)O)[C@@H](C)CC)C(=O)N[C@H](C(=O)N[C@@H](CO)C(=O)N[C@@H](C)C(=O)N[C@@H](CCC(N)=O)C(=O)N[C@H](C(=O)N[C@@H](CC(C)C)C(=O)N[C@@H](CO)C(=O)N[C@@H](CCC(=O)O)C(=O)N[C@@H](CCCCN)C(=O)N[C@@H](Cc1ccccc1)C(=O)N[C@H](C(=O)N[C@@H](CCC(N)=O)C(=O)O)[C@@H](C)O)C(C)C)[C@@H](C)CC` [Peptide 326], half-maximal inhibition (IC50) was put at 29 ± 8 nM.

The assay is the same for the next values; noted with them: HLA-DR1 competition assay, unpublished data; read-out: IC50.
For the compound `CSCC[C@H](NC(=O)[C@H](CC(=O)O)NC(=O)[C@@H](NC(=O)[C@H](CCCNC(=N)N)NC(=O)[C@H](CCSC)NC(=O)[C@H](Cc1ccccc1)NC(=O)[C@@H]1CCCN1C(=O)[C@@H](NC(=O)[C@H](CCC(N)=O)NC(=O)[C@H](CCCCN)NC(=O)CNC(=O)[C@@H]1CCCN1C(=O)[C@@H](N)CC(N)=O)C(C)C)[C@@H](C)O)C(=O)N[C@@H](CC(C)C)C(=O)O` [Peptide B7055], the IC50 is 11 nM.

The IC50 is the concentration at which inhibition is half-maximal.
